Measurements: US11220504B2, “Pyrrolo[3,2-d] pyrimidine derivatives for the treatment of viral infections and other diseases” (JANSSEN SCIENCES IRELAND UNLIMITED COMPANY, priority 2012, dated 2022)

Legend:
human TLR8 = target: T1, human TLR8 (Homo sapiens, UniProt Q9NR97); assay: TLR8 cellular reporter assay (HEK293, NFκB-luc); assay type: cell-based; details: HEK293 cells transfected with CMV-TLR8 and NFκB-luc, 6 hours incubation; lowest effective concentration
T1 construct: expressed in transfected cells; host or cells: HEK293 cells, transient transfection with TLR8 plasmid and NFκB-luc plasmid
T1 sequence (Q9NR97 27-1041): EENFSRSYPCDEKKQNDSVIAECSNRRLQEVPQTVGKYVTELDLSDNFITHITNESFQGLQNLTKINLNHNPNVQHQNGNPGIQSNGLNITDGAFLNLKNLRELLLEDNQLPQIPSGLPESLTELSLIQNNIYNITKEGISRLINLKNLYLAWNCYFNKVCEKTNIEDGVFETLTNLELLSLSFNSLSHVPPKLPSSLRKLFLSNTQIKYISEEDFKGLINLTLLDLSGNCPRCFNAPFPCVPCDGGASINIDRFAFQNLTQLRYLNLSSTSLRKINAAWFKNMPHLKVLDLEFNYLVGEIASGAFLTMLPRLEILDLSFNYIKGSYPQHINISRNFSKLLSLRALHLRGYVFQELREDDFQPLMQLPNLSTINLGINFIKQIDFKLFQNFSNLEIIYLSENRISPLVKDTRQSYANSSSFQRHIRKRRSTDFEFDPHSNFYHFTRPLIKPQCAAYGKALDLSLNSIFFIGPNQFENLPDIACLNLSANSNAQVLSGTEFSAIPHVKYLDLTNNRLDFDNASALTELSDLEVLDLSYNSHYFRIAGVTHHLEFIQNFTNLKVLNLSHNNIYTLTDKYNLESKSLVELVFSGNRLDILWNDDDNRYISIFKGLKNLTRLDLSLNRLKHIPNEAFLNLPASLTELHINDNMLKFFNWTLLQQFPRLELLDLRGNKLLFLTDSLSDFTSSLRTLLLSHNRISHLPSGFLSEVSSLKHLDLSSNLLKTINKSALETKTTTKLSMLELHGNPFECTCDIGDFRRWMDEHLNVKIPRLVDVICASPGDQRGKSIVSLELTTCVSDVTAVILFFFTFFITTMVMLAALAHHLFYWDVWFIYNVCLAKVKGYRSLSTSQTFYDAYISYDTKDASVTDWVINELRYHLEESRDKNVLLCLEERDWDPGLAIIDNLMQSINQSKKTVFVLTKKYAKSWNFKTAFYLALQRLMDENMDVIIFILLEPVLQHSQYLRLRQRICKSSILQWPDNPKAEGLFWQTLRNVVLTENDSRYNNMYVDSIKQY
Experimental: (§1) The ability of compounds to activate human TLR7 and/or TLR8 was assessed in a cellular reporter assay using HEK293 cells transiently transfected with a TLR7 or TLR8 expression vector and NFκB-luc reporter construct.
(§2) Briefly, HEK293 cells were grown in culture medium (DMEM supplemented with 10% FCS and 2 mM Glutamine). […] Thirty microliters of cells were then dispensed into each well in 384-well plates, where 10 μL of compound in 4% DMSO was already present. Following 6 hours incubation at 37° C., 5% CO2, the luciferase activity was determined by adding 15 μL of Steady Lite Plus substrate (Perkin Elmer) to each well and readout performed on a ViewLux ultraHTS microplate imager (Perkin Elmer). Dose response curves were generated from measurements performed in quadruplicates.

human TLR7 = target: T2, human TLR7 (Homo sapiens, UniProt Q9NYK1); assay: TLR7 cellular reporter assay (HEK293, NFκB-luc); assay type: cell-based; details: HEK293 cells transfected with CMV-TLR7 and NFκB-luc, 6 hours incubation; lowest effective concentration
T2 construct: expressed in transfected cells; host or cells: HEK293 cells, transient transfection with CMV-TLR7 plasmid and NFκB-luc plasmid
T2 sequence (Q9NYK1 27-1049): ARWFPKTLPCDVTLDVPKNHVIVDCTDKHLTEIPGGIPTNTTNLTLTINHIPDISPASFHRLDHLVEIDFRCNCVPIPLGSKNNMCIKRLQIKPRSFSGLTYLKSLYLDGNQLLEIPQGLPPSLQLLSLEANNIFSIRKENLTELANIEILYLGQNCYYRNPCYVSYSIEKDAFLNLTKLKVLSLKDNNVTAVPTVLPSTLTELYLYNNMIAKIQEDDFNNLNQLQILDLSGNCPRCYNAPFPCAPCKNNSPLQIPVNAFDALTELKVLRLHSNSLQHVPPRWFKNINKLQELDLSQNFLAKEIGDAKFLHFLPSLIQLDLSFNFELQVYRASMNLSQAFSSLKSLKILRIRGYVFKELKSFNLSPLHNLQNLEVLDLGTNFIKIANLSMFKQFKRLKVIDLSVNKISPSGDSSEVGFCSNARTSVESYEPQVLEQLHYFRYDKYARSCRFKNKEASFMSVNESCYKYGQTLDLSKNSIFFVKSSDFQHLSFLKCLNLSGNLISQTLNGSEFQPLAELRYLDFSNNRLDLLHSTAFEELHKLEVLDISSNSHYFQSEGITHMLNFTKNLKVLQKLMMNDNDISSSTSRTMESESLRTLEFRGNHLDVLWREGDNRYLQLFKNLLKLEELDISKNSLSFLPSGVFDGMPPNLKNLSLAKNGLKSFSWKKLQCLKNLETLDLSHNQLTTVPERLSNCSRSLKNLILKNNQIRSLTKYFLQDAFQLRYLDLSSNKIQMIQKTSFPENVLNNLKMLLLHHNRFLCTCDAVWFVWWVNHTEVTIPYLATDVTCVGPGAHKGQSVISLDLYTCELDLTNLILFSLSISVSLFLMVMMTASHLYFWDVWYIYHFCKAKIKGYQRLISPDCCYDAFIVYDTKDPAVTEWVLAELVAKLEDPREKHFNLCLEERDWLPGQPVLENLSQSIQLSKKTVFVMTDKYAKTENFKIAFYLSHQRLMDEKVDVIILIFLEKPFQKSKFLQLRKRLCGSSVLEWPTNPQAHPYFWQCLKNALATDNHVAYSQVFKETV
Experimental: as §1, §2

[1] = test system: interferon-stimulated responsive elements (ISRE); assay: Activation of ISRE promoter elements by conditioned media from PBMC (HEK-ISREluc); assay type: cell-based, human; details: Homo sapiens; conditioned media from PBMC transferred to HEK-ISREluc cells, 24 hours; lowest effective concentration; read-out: PBMC LEC
Experimental: The potential of compounds to induce IFN-I was also evaluated by measuring the activation of interferon-stimulated responsive elements (ISRE) by conditioned media from PBMC. The ISRE element of sequence […] (SEQ. ID NO:1) is highly responsive to the STAT1-STAT2-IRF 9 transcription factor, activated upon binding of IFN-I to their receptor IFNAR (Clontech, PT3372-5W). […] A HEK293 cell line stably transfected with pISRE-Luc (HEK-ISREluc) was established to profile of the conditioned PBMC cell culture media.
Briefly, PBMCs were prepared from buffy coats of at least two donors using a standard Ficoll centrifugation protocol. Isolated PBMCs were resuspended in RPMI medium supplemented with 10% human AB serum and 2×10^5 cells/well were dispensed into 384-well plates containing compounds (70 μL total volume). After overnight incubation, 10 μL of supernatant was transferred to 384-well plates containing 5×10^3 HEK-ISREluc cells/well in 30 μL (plated the day before). Following 24 hours of incubation, activation of the ISRE elements was measured by assaying luciferase activity using 40 μL/well Steady Lite Plus substrate (Perkin Elmer) and measured with ViewLux ultraHTS microplate imager (Perkin Elmer). The stimulating activity of each compound on the HEK-ISREluc cells was reported as LEC value, defined as the compound concentration applied to the PBMCs resulting in a luciferase activity at least two fold above the standard deviation of the assay. The LEC in turn indicates the degree of ISRE activation on transfer of a defined amount of PBMC culture medium. Recombinant interferon α-2a (Roferon-A) was used as a standard control compound.

Row | Structure (SMILES) | TLR8 LEC (human TLR8) [µM] | TLR7 LEC (human TLR7) [µM] | minimal effective concentration [1] [µM]
1 | CCCCNc1nc(N)nc2ccn(CCOC)c12 [Compound 4] | 13.5 | 0.60 | 0.4
2 | CCCCNc1nc(N)nc2ccn(Cc3cccc(F)c3)c12 [Compound 5] | >25 | 0.30 | 0.2
3 | CCCCNc1nc(N)nc2ccn(Cc3ccccc3Br)c12 [Compound 6] | >25 | 1.3 | 0.7
4 | CCCCNc1nc(N)nc2ccn(Cc3ccccc3-c3ccccc3)c12 [Compound 7] | >25 | 0.61 | 0.8
5 | CCCCNc1nc(N)nc2ccn(CCCC)c12 [Compound 8] | 1.7 | 0.49 | 0.15
6 | CCCCNc1nc(N)nc2ccn(CCC)c12 [Compound 9] | 2.1 | 0.53 | 0.22
7 | CCCCNc1nc(N)nc2ccn(CCc3ccccc3)c12 [Compound 11] | 3.5 | 1.5 | 0.56
8 | CCCCNc1nc(N)nc2ccn(Cc3ccccc3Cl)c12 [Compound 13] | >25 | 0.80 | 0.89
9 | CCCC[C@@H](CO)Nc1nc(N)nc2ccn(Cc3cccnn3)c12 [Compound 14] | 6.57 | 0.52 | 0.01
10 | CCC[C@@H](CO)Nc1nc(N)nc2ccn(Cc3cccnn3)c12 [Compound 15] | >25 | 5.84 | 0.1
11 | CCCCNc1nc(N)nc2ccn(Cc3ccc(F)c(Cl)c3)c12 [Compound 16] | >25 | 0.89 | 0.6
12 | CCC[C@@H](CO)Nc1nc(N)nc2ccn(Cc3ccccc3)c12 [Compound 17] | 12.5 | 0.07 | 0.01
13 | CCCCNc1nc(N)nc2ccn(C(C)C)c12 [Compound 19] | 7.06 | 2.5 | 0.62
14 | CCCCNc1nc(N)nc2ccn(Cc3cc(C)on3)c12 [Compound 20] | 1.3 | 0.14 | 0.02
15 | CCC[C@@H](CCO)Nc1nc(N)nc2ccn(Cc3ccccc3)c12 [Compound 21] | 7.4 | 0.009 | 0.0007
16 | CCC[C@@H](CO)Nc1nc(N)nc2ccn(Cc3ccccn3)c12 [Compound 22] | 9.2 | 0.48 | 0.02
17 | CCCNc1nc(N)nc2ccn(Cc3ccccc3)c12 [Compound 23] | >25 | 0.83 | 0.27
18 | CCC[C@@H](CCO)Nc1nc(N)nc2ccn(Cc3ccccn3)c12 [Compound 24] | 6.47 | 0.02 | 0.0007
19 | CCCC[C@@H](CCO)Nc1nc(N)nc2ccn(Cc3ccccn3)c12 [Compound 25] | 2.84 | 0.01 | 0.001
20 | CCC[C@@H](CO)Nc1nc(N)nc2ccn(CC(C)C)c12 [Compound 27] | 0.85 | 0.15 | 0.17
21 | CCCC[C@@H](CCO)Nc1nc(N)nc2ccn(CC(C)C)c12 [Compound 28] | 1.1 | 0.11 | 0.03
22 | CCCCCNc1nc(N)nc2ccn(Cc3ccccc3)c12 [Compound 29] | >25 | 0.15 | 0.04
23 | CCC[C@@H](CCO)Nc1nc(N)nc2ccn(CC(C)C)c12 [Compound 30] | 0.67 | 0.16 | 0.05
